This passage reports IC50 results from the Kinase Knowledgebase extract (Sharma et al. 2016).

The experiment addresses MAPK14 (UniProt Q16539). Put plainly: Inhibition of MAPK14 Kinase Activity.

MAPK14, sequence (Q16539 whole entry, looked up): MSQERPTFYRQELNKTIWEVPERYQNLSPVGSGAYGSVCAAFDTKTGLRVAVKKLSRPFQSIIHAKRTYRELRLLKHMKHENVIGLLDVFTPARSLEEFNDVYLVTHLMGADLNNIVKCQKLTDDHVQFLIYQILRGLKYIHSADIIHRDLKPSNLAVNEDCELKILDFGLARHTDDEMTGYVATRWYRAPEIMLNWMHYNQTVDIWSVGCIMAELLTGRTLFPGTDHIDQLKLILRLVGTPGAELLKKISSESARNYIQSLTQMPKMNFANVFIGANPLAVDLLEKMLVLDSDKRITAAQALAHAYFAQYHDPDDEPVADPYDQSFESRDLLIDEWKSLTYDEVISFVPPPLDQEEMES

Broadly, the IC50 is the concentration needed to halve the response being measured. `CCN1CCC(c2nc(-c3ccc4nc(N)n(S(=O)(=O)C(C)C)c4c3)c(-c3ccccc3)[nH]2)CC1`: the half-inhibitory concentration (IC50) is no more than 5 µM.
On to `CC(C)S(=O)(=O)n1c(N)nc2ccc(-c3nc(-c4ccc(OCCN5CCCCC5)cc4)[nH]c3-c3ccccc3)cc21`, for which the half-inhibitory concentration (IC50) is no more than 5 µM.
Regarding `Cc1cc(-c2ccc3nc(N)n(S(=O)(=O)C(C)C)c3c2)n(-c2ccccc2)n1`, the IC50 was no more than 5 µM.
`CC(C)S(=O)(=O)n1c(N)nc2ccc(-c3nc(-c4ccc(OCCN5CCOCC5)c(F)c4)[nH]c3-c3ccccc3)cc21` had a concentration for half-maximal inhibition (IC50) of no more than 5 µM.
`CC(C)S(=O)(=O)n1c(N)nc2ccc(-c3nc(-c4ccccc4SC(F)(F)F)[nH]c3-c3ccccc3)cc21` yielded an IC50 of no more than 5 µM.
`CC(C)S(=O)(=O)n1c(N)nc2ccc(-c3c(-c4cccc(F)c4)ncn3[C@H]3CC[C@H](O)CC3)cc21` returned a concentration for half-maximal inhibition (IC50) of no more than 5 µM.
`CC(C)S(=O)(=O)n1c(N)nc2ccc(-c3c(-c4ccccc4)ncn3Cc3ccccn3)cc21` returned an IC50 of no more than 5 µM.
Turning to `CC(C)S(=O)(=O)n1c(N)nc2ccc(-c3nc(CN(C)C)[nH]c3-c3ccccc3)cc21`, the IC50 is no more than 5 µM.
As to `CC(C)S(=O)(=O)n1c(N)nc2ccc(-c3c(-c4ccc(F)cc4)ncn3CC3CC3)cc21`, the 50% inhibitory concentration (IC50) was no more than 5 µM.
In turn, `Nc1nc2ccc(-c3c(-c4ccccc4)ncn3C3CCCCC3)cc2s1` gave an IC50 of no more than 5 µM.
As for `CC(C)S(=O)(=O)n1c(N)nc2ccc(-c3nc(C4CCN(CCN(C)C)CC4)[nH]c3-c3ccccc3)cc21`, the IC50 is no more than 5 µM.
As for `CC(C)S(=O)(=O)n1c(N)nc2ccc(-c3nc(C=O)[nH]c3-c3ccccc3)cc21`, the half-maximal inhibitory concentration (IC50) was no more than 5 µM.
Compound `CC(C)S(=O)(=O)n1c(N)nc2ccc(-c3nc(-c4ccc(N(C)C)cc4)[nH]c3-c3ccccc3)cc21` showed an IC50 of no more than 5 µM.
Take `CC(C)S(=O)(=O)n1c(N)nc2ccc(-c3c(-c4ccccc4)ncn3[C@H](CO)CC3CCCCC3)cc21`: the concentration for half-maximal inhibition (IC50) is no more than 5 µM.
Regarding `CC(C)S(=O)(=O)n1c(N)nc2ccc(-c3nc(-c4ccccc4)[nH]c3-c3ccccc3)cc21`, the 50% inhibitory concentration (IC50) was no more than 5 µM.
`CC(C)S(=O)(=O)n1c(N)nc2ccc(-c3nc(-c4ccccc4N4CCOCC4)[nH]c3-c3ccccc3)cc21` had a concentration for half-maximal inhibition (IC50) of no more than 5 µM.
On to `CC(C)S(=O)(=O)n1c(N)nc2ccc(-c3c(-c4ccccc4)ncn3CCCN3CCOCC3)cc21`, for which the IC50 is no more than 5 µM.
The value for `CC(C)S(=O)(=O)n1c(N)nc2ccc(-c3c(-c4ccccc4F)nc(Br)n3C3CCCCC3)cc21` was no more than 5 µM; that for `CC(C)CN1CCC(c2nc(-c3ccc4nc(N)n(S(=O)(=O)C(C)C)c4c3)c(-c3ccccc3)[nH]2)CC1` was no more than 5 µM.
For the compound `CC(C)S(=O)(=O)n1c(N)nc2ccc(-c3nc(CNCCN4CCCCC4)[nH]c3-c3ccccc3)cc21`, the IC50 is no more than 5 µM.
To `CC(C)N1CCC(n2cnc(-c3ccccc3)c2-c2ccc3nc(N)n(S(=O)(=O)C(C)C)c3c2)CC1` belongs no more than 5 µM.
Compound `COc1ccc(Cn2cnc(-c3ccccc3)c2-c2ccc3ncn(S(=O)(=O)C(C)C)c3c2)cc1` had an IC50 of no more than 5 µM.
The value for `CCn1cnc(-c2ccccc2)c1-c1ccc2nc(N)n(S(=O)(=O)C(C)C)c2c1` was no more than 5 µM.
To `CC(C)S(=O)(=O)n1c(N)nc2ccc(-c3nc(-c4ccsc4)[nH]c3-c3ccc(F)cc3)cc21` belongs no more than 5 µM; to `CC(C)S(=O)(=O)n1c(N)nc2ccc(-c3nc(-c4ccccc4C(F)(F)F)[nH]c3-c3ccccc3)cc21`, no more than 5 µM; to `CC(C)S(=O)(=O)n1c(N)nc2ccc(-c3nc(-c4ccc(OCCN5CCCC5)c(F)c4)[nH]c3-c3ccccc3)cc21`, no more than 5 µM.
In turn, `Cc1nc(-c2ccc3nc(N)n(S(=O)(=O)C(C)C)c3c2)c(-c2ccc(F)cc2)[nH]1` came in with a concentration for half-maximal inhibition (IC50) of no more than 5 µM.
The value for `CC(C)S(=O)(=O)n1c(N)nc2ccc(-c3nc(-c4ccc(OC(F)(F)F)cc4)[nH]c3-c3ccccc3)cc21` was no more than 5 µM; that for `CC(C)S(=O)(=O)n1c(N)nc2ccc(-c3nc(C4CCN(CCC(F)(F)F)CC4)[nH]c3-c3ccccc3)cc21` was no more than 5 µM; that for `CC(C)S(=O)(=O)n1c(N)nc2ccc(-c3nc(-c4c(F)cc(OCCN5CCCC5)cc4F)[nH]c3-c3ccccc3)cc21` was no more than 5 µM.
For the compound `CC(C)S(=O)(=O)n1c(N)nc2ccc(-c3[nH]n(-c4ccc([N+](=O)[O-])cc4)c(=O)c3-c3ccc(F)cc3)cc21`, the IC50 is no more than 5 µM.
`Clc1nc2ccc(-c3c(-c4ccccc4)ncn3C3CCCCC3)cc2s1` gave an IC50 of no more than 5 µM.
As to `Cc1cccn2c(-c3ccc4nc(N)n(S(=O)(=O)C(C)C)c4c3)c(-c3ccccc3)nc12`, the IC50 was no more than 5 µM.
For the compound `CC(C)S(=O)(=O)n1c(N)nc2ccc(-c3[nH]n(-c4cc(F)ccc4F)c(=O)c3-c3ccccc3)cc21`, the concentration for half-maximal inhibition (IC50) is no more than 5 µM.
As for `CC(C)S(=O)(=O)n1c(N)nc2ccc(-c3nc(-c4ccccc4OC(F)(F)F)[nH]c3-c3ccccc3)cc21`, the 50% inhibitory concentration (IC50) was no more than 5 µM.
In turn, `CC(C)S(=O)(=O)n1c(N)nc2ccc(-c3nc(C(C)(C)C)[nH]c3-c3ccc(F)cc3)cc21` showed a concentration for half-maximal inhibition (IC50) of no more than 5 µM.
Compound `CC(C)S(=O)(=O)n1c(N)nc2ccc(-c3c(-c4ccccc4)ncn3Cc3ccccc3F)cc21` gave an IC50 of no more than 5 µM.
Compound `COC(=O)CCn1cnc(-c2ccccc2)c1-c1ccc2nc(N)n(S(=O)(=O)C(C)C)c2c1` registered an IC50 of no more than 5 µM.
`CC(C)S(=O)(=O)n1c(N)nc2ccc(-c3nc(C4CCN(C(=O)OC(C)(C)C)CC4)[nH]c3-c3ccc(F)cc3)cc21` gave a 50% inhibitory concentration (IC50) of no more than 5 µM.
The compound `CCc1ccc(-c2nc(-c3ccc4nc(N)n(S(=O)(=O)C(C)C)c4c3)c(-c3ccccc3)[nH]2)s1` gave an IC50 of no more than 5 µM.
On to `CC(C)S(=O)(=O)n1c(N)nc2ccc(-c3c(-c4ccccc4F)nc(-c4c[nH]nn4)n3C3CC3)cc21`, for which the IC50 is no more than 5 µM.
In turn, `Cc1nc(-c2ccccc2)c(-c2ccc3nc(N)n(S(=O)(=O)C(C)C)c3c2)s1` showed an IC50 of no more than 5 µM.
For `CC(C)S(=O)(=O)n1c(N)nc2ccc(C3C(c4ccccc4)N=C4Sc5ccccc5N43)cc21` (stereo not given), the IC50 is no more than 5 µM.
The compound `CC(C)S(=O)(=O)n1c(N)nc2ccc(-c3c(-c4ccc(F)cc4)ncn3CCN3CCOCC3)cc21` displayed an IC50 of no more than 5 µM.
`Nc1nc2ccc(-c3nc(-c4c(F)cccc4F)[nH]c3-c3ccccc3)cc2n1S(=O)(=O)C1CCCC1` yielded a 50% inhibitory concentration (IC50) of no more than 5 µM.
For `CC(C)S(=O)(=O)n1c(N)nc2ccc(-c3c(-c4ccccc4)ncn3[C@@H]3CCCC[C@H]3CO)cc21`, the IC50 was no more than 5 µM.
The value for `COc1ccc(C2N=C3C(C)=CC=CN3C2c2ccc3nc(N)n(S(=O)(=O)C(C)C)c3c2)cc1` (stereo not given) was no more than 5 µM.
For the compound `CC(C)S(=O)(=O)n1c(N)nc2ccc(-c3nc(-c4cccs4)[nH]c3-c3cccc(C(F)(F)F)c3)cc21`, the IC50 is no more than 5 µM.
Take `CC(C)S(=O)(=O)n1c(N)nc2ccc(-c3nc(-c4ccncc4)[nH]c3-c3ccccc3)cc21`: the IC50 is no more than 5 µM.
`CC(C)S(=O)(=O)n1c(Cc2ccccc2N)nc2ccc(-c3[nH]cnc3-c3ccccc3)cc21` had an IC50 of no more than 5 µM.
`CC(C)S(=O)(=O)n1c(N)nc2ccc(-c3c(-c4ccccc4)ncn3C3CCC(O)CC3)cc21` (stereo not given) displayed an IC50 of no more than 5 µM.
To `CC(C)S(=O)(=O)n1c(N)nc2ccc(-c3nc(-c4ccc(OCCCN(C)C)c(F)c4)[nH]c3-c3ccccc3)cc21` belongs no more than 5 µM; to `CC(C)S(=O)(=O)n1c(N)nc2ccc(-c3nc(-c4cccc(C(F)(F)F)c4)[nH]c3-c3ccccc3)cc21`, no more than 5 µM; to `CCOC(=O)N1CCC(n2cnc(-c3ccccc3F)c2-c2ccc3nc(N)n(S(=O)(=O)C(C)C)c3c2)CC1`, no more than 5 µM.
The value for `CC(C)S(=O)(=O)n1c(N)nc2ccc(-c3nc(C4CCN(C(=O)OC(C)(C)C)CC4)[nH]c3-c3ccccc3)cc21` was no more than 5 µM.
For the compound `CC(C)S(=O)(=O)n1c(N)nc2ccc(-c3c(-c4ccccc4F)nc(C#CCCO)n3C3CC3)cc21`, the IC50 is no more than 5 µM.
The value for `CC(C)S(=O)(=O)n1c(N)nc2ccc(-c3c(-c4ccc(F)cc4)ncn3C3CCN(C(=O)OC(C)(C)C)CC3)cc21` was no more than 5 µM; that for `CC(C)S(=O)(=O)n1c(N)nc2ccc(-c3nc(-c4cccc(OCCN(C)C)c4)[nH]c3-c3ccccc3)cc21` was no more than 5 µM; that for `CCc1nc(-c2ccccc2F)c(-c2ccc3nc(N)n(S(=O)(=O)C(C)C)c3c2)n1C1CC1` was no more than 5 µM.
Consider `CC(C)S(=O)(=O)n1c(N)nc2ccc(-c3nc(-c4ccc([N+](=O)[O-])cc4)[nH]c3-c3ccccc3)cc21`, for which the half-maximal inhibitory concentration (IC50) is no more than 5 µM.
For the compound `Nc1ccccc1Cc1nc2ccc(-c3[nH]cnc3-c3ccccc3)cc2[nH]1`, the IC50 was no more than 5 µM.
As for `CC(C)S(=O)(=O)n1c(N)nc2ccc(-c3c(-c4ccc(F)cc4)ncn3C)cc21`, the IC50 was no more than 5 µM.
The compound `CC(C)S(=O)(=O)n1c(N)nc2ccc(-c3nc(-c4ccc(S(C)(=O)=O)cc4)[nH]c3-c3ccccc3)cc21` returned an IC50 of no more than 5 µM.
Consider `CC(C)S(=O)(=O)n1c(N)nc2ccc(-c3c(-c4ccccc4)ncn3-c3ccc(N)cc3)cc21`, for which the IC50 was no more than 5 µM.
The value for `CC(C)S(=O)(=O)n1c(N)nc2ccc(-c3nc(CN4CCCCC4)[nH]c3-c3ccccc3)cc21` was no more than 5 µM; that for `CC(C)S(=O)(=O)n1c(N)nc2ccc(-c3c(-c4ccc(F)cc4)ncn3C3CCCCC3)cc21` was no more than 5 µM.
To `CC(C)S(=O)(=O)n1c(N)nc2ccc(-c3nc[nH]c3-c3ccc(F)cc3F)cc21` belongs no more than 5 µM.
For the compound `CC(C)S(=O)(=O)n1c(N)nc2ccc(-c3c(-c4ccccc4)ncn3CCCc3ccccc3)cc21`, the half-inhibitory concentration (IC50) was no more than 5 µM.
Compound `CCn1cnc(-c2ccc(F)cc2)c1-c1ccc2nc(N)n(S(=O)(=O)C(C)C)c2c1` registered a half-maximal inhibitory concentration (IC50) of no more than 5 µM.
`CC(C)S(=O)(=O)n1c(N)nc2ccc(-c3c(-c4cccc(F)c4F)ncn3C)cc21` registered an IC50 of no more than 5 µM.
To `CC(C)S(=O)(=O)n1c(N)nc2ccc(-c3c(-c4ccccc4)ncn3C3CC3)cc21` belongs no more than 5 µM; to `COc1ccc(Cn2c(CO)nc(-c3ccccc3)c2-c2ccc3nc(N)n(S(=O)(=O)C(C)C)c3c2)cc1`, no more than 5 µM.
Turning to `CC(C)S(=O)(=O)n1c(N)nc2ccc(-c3nc(-c4ccc(N)cc4)[nH]c3-c3ccccc3)cc21`, the half-maximal inhibitory concentration (IC50) was no more than 5 µM.
To `CC(C)c1nc(-c2ccc3nc(N)n(S(=O)(=O)C(C)C)c3c2)c(-c2ccccc2)[nH]1` belongs no more than 5 µM; to `CC(C)CN1CCC(c2nc(-c3ccc4nc(N)n(S(=O)(=O)C(C)C)c4c3)c(-c3ccc(F)cc3)[nH]2)CC1`, no more than 5 µM.
